Data reported in US5654008A, “Preparation of biodegradable microparticles containing a biologically active agent” (Alkermes Controlled Therapeutics Inc. II, priority 1996, dated 1997).

## C#C[C@]1(O)CC[C@H]2[C@@H]3CCC4=CC(=O)CC[C@@H]4[C@H]3CC[C@@]21C [NET, norethindrone]
0.25 to 1.5 L quench liquid per gram, possible minimum at 1 L
  NET release rate, effect of quench volume: varies slightly with a possible minimum
At extreme ethyl acetate contents
  in vitro release, effect of ethyl acetate content of quench liquid: quicker release
